In patent US12728119B2, “Pharmaceutical composition for preventing or treating cancer comprising 3-ketoacyl CoA thiolase inhibitor and carnitine acylcarnitine carrier inhibitor” (NATIONAL CANCER CENTER, priority 2020, dated 2026):
Values joined by “and” are separate entries in the source; they are usually repeats but may differ in a detail not shown here. Identical values can stand only once.

Experiments:
[1] = test system: T87G glioblastoma (GBM) cell line; experiment: SRB analysis 3; format: cell-based; details: 48 hours
Experimental: (§1) Through SRB analysis (n=3), the effect of triple combination treatment of a CAC inhibitor ([…] inhibitor (KN713: trimetazidine) and other anticancer drug on cell growth in the cancer cells was analyzed. (see Table 11). The SRB assay was performed as follows: each cell line (100 μl) was seeded into 96-well microtiter plates at densities ranging from 5,000 to 40,000 cells/well depending on the doubling time of each cell line. After 24 hours, drug (100 μl per well) was added to each well and the culture was incubated at 37° C. for 48 hours. Cells were then fixed in 50% TCA (50 μl per well) and plates were incubated at 4° C. for a minimum of 1 hour or a maximum of 3 hours. After that, the liquid was removed from the plate, then rinsed 5 times with water and dried for approximately 12-24 hours at room temperature (RT). After the fixed cells were stained with 0.4% SRB (100 μl per well) for 10 minutes at room temperature, the plates were washed 3 times with 1% glacial acetic acid and dried at room temperature for about 12-24 hours. SRB staining was dissolved in 10 mM Trizma base and absorbance was read at 515 nm.

[2] = test system: U87MG glioblastoma (GBM) cell line; experiment: SRB analysis 3; format: cell-based; details: 48 hours
Experimental: as §1

[3] = test system: SW1990 pancreatic cancer cells; experiment: SRB analysis 2; format: cell-based; details: 48 hours
Experimental: (§2) The SRB assay was performed as follows: each cell line (100 μl) was seeded into 96-well microtiter plates at densities ranging from 5,000 to 20,000 cells/well depending on the doubling time of each cell line. After cell seeding, microtiter plates were incubated for 24 h before addition of experimental drug. Drugs were prepared at the indicated concentrations and 100 μl was added to each well; The plates were then incubated in a CO2 incubator. Then, cold TCA was added to terminate the assay. Cells were fixed in situ by gentle addition of 50 μl of cold 50% (w/v) TCA (final concentration: 10% TCA) and incubated at 4° C. for 60 min. The supernatant was discarded and the plate was washed 5 times with tap water and then air dried. A solution (100 μl) of 0.4% (w/v) SRB (Sulforhodamine B) in 1% acetic acid was added to each well, and the plate was left at room temperature for 10 minutes. After staining, the plates were air dried after washing 5 times with 1% acetic acid to remove unbound dye. The bound dye was then solubilized with 10 mM trizma base and the absorbance was recorded at 515 nm using an automated plate reader.

[4] = test system: BxPC-3 pancreatic cancer cells; experiment: SRB analysis 2; format: cell-based; details: 48 hours
Experimental: as §2

[5] = test system: SU.86.86 pancreatic cancer cells; experiment: SRB analysis 2; format: cell-based; details: 48 hours
Experimental: as §2

[6] = test system: AsPC-1 pancreatic cancer cells; experiment: SRB analysis 2; format: cell-based; details: 48 hours
Experimental: as §2

[7] = test system: MIA PaCa2 pancreatic cancer cells; experiment: SRB analysis 2; format: cell-based; details: MIA PaCa-2, 48 hours
Experimental: as §2

[8] = test system: SNU-324 pancreatic cancer cells; experiment: SRB analysis 2; format: cell-based; details: SNU324, 48 hours
Experimental: as §2

[9] = test system: SNU-213 pancreatic cancer cells; experiment: SRB analysis 2; format: cell-based; details: SNU213, 48 hours
Experimental: as §2

[10] = test system: Panc-1 pancreatic cancer cells; experiment: SRB analysis 2; format: cell-based; details: 48 hours
Experimental: as §2

MIA PaCa-2 cells = experiment: Xenograft tumor model; format: in vivo, Balb/c-nu mice
Experimental: MIA PaCa-2 cells (1×10 7) in 100 μl PBS were subcutaneously inoculated into 6-8 weeks old Balb/c-nu mice (Orient, Seoul, Korea) using a 1 ml syringe. After one week, the mice were divided into three groups: a control group (solvent treatment), a KN713 40 mg/kg/100 μl treatment group, and a KN713 80 mg/kg/200 μl treatment group. KN713 was administered intraperitoneally once a day (for 49 days, 6 days/week, n=7). The primary tumor size was measured weekly using a caliper, and the tumor volume was calculated using the formula V=(A×B^2)/2 (V=volume (mm^3), A=long diameter, B=short diameter). This experiment was reviewed and approved by the Institutional Animal Care and Use Committee (IACUC) of the National Cancer Center Research Institute, which was established by the International Association for Accreditation of Laboratory Animals (It was accredited by AAALAC International).

SMILES: COc1ccc2[nH]c([S+]([O-])Cc3ncc(C)c(OC)c3C)nc2c1 (stereo not drawn) [KN510, omeprazole]
- cell growth (Control = 100) ([1]; KN510 100 μM): 67.87
- cell growth (Control = 100) ([2]; KN510 100 μM): 84.15
- degree of cell growth based on the control (100%) ([3]; KN510 100 μM): 90.16%
- degree of cell growth based on the control (100%) ([3]; KN510 200 μM): 63.83%
- degree of cell growth based on the control (100%) ([4]; KN510 100 μM): 40.19%
- degree of cell growth based on the control (100%) ([4]; KN510 200 μM): 17.37%
- degree of cell growth based on the control (100%) ([5]; KN510 100 μM): 78.12%
- degree of cell growth based on the control (100%) ([5]; KN510 200 μM): 53.01%
- degree of cell growth based on the control (100%) ([6]; KN510 100 μM): 77.31%
- degree of cell growth based on the control (100%) ([6]; KN510 200 μM): 28.00%
- degree of cell growth based on the control (100%) ([7]; KN510 100 μM): 86.46%
- degree of cell growth based on the control (100%) ([7]; KN510 200 μM): 44.41%
- degree of cell growth based on the control (100%) ([8]; KN510 100 μM): 43.26%
- degree of cell growth based on the control (100%) ([8]; KN510 200 μM): 19.68%
- degree of cell growth based on the control (100%) ([9]; KN510 100 μM): 97.11%
- degree of cell growth based on the control (100%) ([9]; KN510 200 μM): 54.29%
- degree of cell growth based on the control (100%) ([10]; KN510 100 μM): 63.06%
- degree of cell growth based on the control (100%) ([10]; KN510 200 μM): 19.45%

SMILES: COc1ccc(CN2CCNCC2)c(OC)c1OC [KN713, trimetazidine]
- cell growth (Control = 100) ([1]; KN713 2.5 mM): 59.89
- cell growth (Control = 100) ([2]; KN713 2.5 mM): 66.40
- degree of cell growth based on the control (100%) ([4]; KN713 2.5 mM): 36.83% and 32.97%
- degree of cell growth based on the control (100%) ([5]; KN713 2.5 mM): 88.97% and 65.95%
- degree of cell growth based on the control (100%) ([6]; KN713 2.5 mM): 61.66% and 62.56%
- degree of cell growth based on the control (100%) ([7]; KN713 2.5 mM): 78.16% and 58.31%
- degree of cell growth based on the control (100%) ([8]; KN713 2.5 mM): 53.40% and 61.55%
- degree of cell growth based on the control (100%) ([9]; KN713 2.5 mM): −0.24% and 1.98%
- tumor size (tumor volume) (MIA PaCa-2 cells; KN713 40 mg/kg intraperitoneally once a day, column 3 (measured weekly), Control 148.59): 147.09 mm^3
- tumor size (tumor volume) (MIA PaCa-2 cells; KN713 40 mg/kg intraperitoneally once a day, column 4 (measured weekly), Control 448.52): 319.40 mm^3
- tumor size (tumor volume) (MIA PaCa-2 cells; KN713 40 mg/kg intraperitoneally once a day, column 5 (measured weekly), Control 748.89): 499.29 mm^3
- tumor size (tumor volume) (MIA PaCa-2 cells; KN713 40 mg/kg intraperitoneally once a day, column 6 (measured weekly), Control 944.41): 593.57 mm^3
- tumor size (tumor volume) (MIA PaCa-2 cells; KN713 40 mg/kg intraperitoneally once a day, column 7 (measured weekly), Control 1472.13): 790.38 mm^3
- tumor size (tumor volume) (MIA PaCa-2 cells; KN713 40 mg/kg intraperitoneally once a day, column 8 (measured weekly), Control 1709.54): 965.18 mm^3
- tumor size (tumor volume) (MIA PaCa-2 cells; KN713 80 mg/kg intraperitoneally once a day, column 3 (measured weekly), Control 148.59): 147.36 mm^3
- tumor size (tumor volume) (MIA PaCa-2 cells; KN713 80 mg/kg intraperitoneally once a day, column 4 (measured weekly), Control 448.52): 279.36 mm^3
- tumor size (tumor volume) (MIA PaCa-2 cells; KN713 80 mg/kg intraperitoneally once a day, column 5 (measured weekly), Control 748.89): 372.00 mm^3
- tumor size (tumor volume) (MIA PaCa-2 cells; KN713 80 mg/kg intraperitoneally once a day, column 6 (measured weekly), Control 944.41): 420.82 mm^3
- tumor size (tumor volume) (MIA PaCa-2 cells; KN713 80 mg/kg intraperitoneally once a day, column 7 (measured weekly), Control 1472.13): 589.49 mm^3
- tumor size (tumor volume) (MIA PaCa-2 cells; KN713 80 mg/kg intraperitoneally once a day, column 8 (measured weekly), Control 1709.54): 555.42 mm^3
- tumor size (MIA PaCa-2 cells; mouse model transplanted with MIA PaCa2, result in words): significantly suppressed
